Source: PubChem BioAssay AID651717 (Broad Institute, 2012)

Test system: mESC Bmi1-luciferase reporter, firefly/renilla ratio, 24 h
Assay: Bmi1-luciferase reporter activators in mESC, dose response, esBAF inhibitor project, mouse embryonic stem cells, cherry-pick (AID 651717);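 also: luciferase knocked into Bmi1 locus with EF-1a renilla as cell number control; rising ratio signals esBAF inhibition which derepresses Bmi1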

Row | SMILES | AC40 [µM]
1 | O=C(Nc1cccc(Cl)c1Cl)c1ccc(-c2ccccc2)cc1 | 3.54
2 | CS(=O)(=O)N1CCc2cc(C(=O)Nc3ccc(Cl)cc3)ccc21 | 6.5
3 | CCc1sc(C(=O)Nc2ccc3nc(C)sc3c2)cc1C | 4.74
4 | OC(c1ccccc1)c1nc(-c2ccc3c(c2)OCO3)cs1 (stereo not given) | 3.37
5 | COC(=O)c1sc(Nc2ccccc2)nc1C | 4.18
6 | COc1ccc(-c2noc(CCCC(=O)N3CCN(c4cc(C)ccc4C)CC3)n2)cc1 | 3.53
7 | c1ccc(CCNc2nc3ccccc3s2)cc1 | 3.14
8 | CC(=O)Nc1ccc(-c2nc3c(C)cccc3[nH]2)cc1 | 1.25
9 | c1ccc(Nc2ccc3ccccc3c2)cc1 | 3.83
10 | O=C(NCc1ccc2c(c1)OCO2)Nc1cccc(Cl)c1 | 7.4
11 | O=C(COC(=O)c1cc2ccccc2oc1=O)Nc1cccc(S(=O)(=O)N2CCCCCC2)c1 | 12.7
12 | Cc1ccc(OCc2cc(C(=O)N3CCN(C4CCCCC4)CC3)no2)cc1C | 10
13 | COc1ccc(-n2nc(C(=O)NCC(=O)N3CCN(c4ccccc4F)CC3)c3ccccc3c2=O)cc1 | 1.22
14 | CC(=O)Nc1ccc(NC(=O)c2cccc(-c3cc4ccccc4oc3=O)c2)cc1 | 9.75
15 | CC(=O)Nc1ccc2nc(C)n(Cc3ccc(Cl)cc3)c(=O)c2c1 | 4.21
16 | Cc1ccc(NC(=O)c2cccc3ccccc23)cc1 | 13.9
17 | Cc1csc(Nc2nc(N)c(C(=O)Nc3ccccc3)o2)n1 | 3.69
18 | Cc1ccc(C2/C(=C(/O)c3cnn(-c4ccccc4)c3C)C(=O)C(=O)N2CCN2CCOCC2)o1 (stereo not given) | 8.69
19 | COc1cc(SC)ccc1C(=O)NCC1CCCCC1 | 3.03
20 | COc1ccc(NC(=O)c2ccc3ccccc3c2OC)cc1 | 2.56
21 | Clc1ccc(-c2cn3cccnc3n2)cc1Cl | 3.56
22 | Cc1ccc(NC(=O)C(=O)Nc2ccc(C)cn2)nc1 | 0.497
23 | CCC(=O)n1nc(-c2ccc(Cl)cc2)nc1SC | 3.71
24 | Cc1sc2nc(-c3ccc(Br)cc3)oc(=O)c2c1C | 1.61
25 | COc1ccc(OCc2cc(C(=O)NC(C)c3csc(C)n3)no2)c(Cl)c1 (stereo not given) | 4.18
